Common to all, as to settings: 336 h, Table 3, post-emergence, 14±1 days post application
Assay [1] concerns Echinochloa crus-gaffi (ECHCG). The experiment in a line: Post-emergence glasshouse test, visual injury, ECHCG. Type of assay: in vivo, Echinochloa crus-galli. The procedure: (§1) Seeds of a variety of test species are grown in a sandy loam soil mixture, Lolium multiflorum (LOLMU), Amaranthus retroflexus (AMARE), Echinochloa crus-gaffi (ECHCG), Veronica persica (VERPE), Glycine max (GLXMA), Oryza sativa (ORYSA), Zea mays (ZEAMX), spring wheat (TRZAS), Ipomoea hederacea (IPOHE), Ipomoea purpurea (PHBPU), Stellaria media (STEME), Solanum nigrum (SOLNI), Digitaria sanguinalis (DIGSA), Setaria italica (SETIT), Alopecurus myosuroides (ALOMY) and Avena fatua (AVEFA).
(§2) After sowing, at growth stage BBCH 12-14 (post-emergence), the plants are sprayed with an aqueous spray solution derived from the formulation of the technical active ingredient in acetone/water (50:50) solution containing 0.5% Tween 20 (polyoxyethlyene sorbitan monolaureate, CAS RN 9005-64-5). The test compounds are applied at the required concentration of active ingredient in g/ha. The test plants are then grown in a glasshouse under controlled environmental conditions and watered regularly as required. After 14±1 days post application (for post-emergence test), the test is evaluated by assessing the percentage damage caused to the plants in comparison with the untreated plots. The biological activities for post-emergence testing are shown below (Table 3 and Table 4) as a % visual injury.

Assay [2] concerns Lolium multiflorum (LOLMU). The experiment in a line: Post-emergence glasshouse test, visual injury, LOLMU. Type of assay: in vivo. The procedure: as §1, §2
The test system of assay [3] is Amaranthus retroflexus (AMARE). The experiment in a line: Post-emergence glasshouse test, visual injury, AMARE. In kind it is in vivo. The procedure: as §1, §2
The subject of assay [4] is Veronica persica (VERPE). Put plainly: Post-emergence glasshouse test, visual injury, VERPE. Type of assay: in vivo. The procedure: as §1, §2

As usually defined, the pest or weed control is how far the test organism was held down. Low values mean weak suppression, high ones strong suppression. As for `CCOCCCNc1ncc(-c2cc(C)no2)c(C(C)(C)C)n1` [Compound 40], the pest or weed control at 500 g/ha in assay [1] stood at 30%; in assay [2], 0%; in assay [3], 70%; in assay [4], 0%.
Regarding `Cc1cc(-c2cnc(N3CCCCC3)nc2C(C)(C)C)on1` [Compound 48], the pest or weed control at 500 g/ha in assay [1] was 10%; in assay [2], 70%; in assay [3], 20%; in assay [4], 0%.
Turning to `Cc1cc(-c2cnc(N3CCSCC3)nc2-c2ccc(C)o2)on1` [Compound 90], the pest or weed control at 125 g/ha is 30% in assay [1], 0% in assay [2], 30% in assay [3] and 40% in assay [4].
As to `Cc1cc(-c2cnc(NCC3COCCO3)nc2C2CC2)on1` (centres unmarked) [Compound 74], the pest or weed control at 500 g/ha in assay [1] came out at 80%; in assay [2], 70%; in assay [3] it was 100%; in assay [4], 90%.
With `Cc1cc(-c2cnc(NCc3ccc(F)cc3)nc2C(F)(F)F)on1` [Compound 127], the pest or weed control at 125 g/ha in assay [1] was found to be 60%; in assay [2], 0%; in assay [3] it was 100%; in assay [4] it was 98%.
Consider `Cc1cc(-c2cnc(N3CCC(O)C(C)C3)nc2C2CC2)on1` (centres unmarked) [Compound 60], for which the pest or weed control at 500 g/ha was 30% in assay [1], 70% in assay [2], 60% in assay [3] and 60% in assay [4].
In the case of `Cc1cc(-c2cnc(N(C)C)nc2C(C)C)on1` [Compound 82], the pest or weed control at 250 g/ha in assay [1] was 70%; in assay [2] it was 30%; in assay [3], 0%; in assay [4] it was 20%.
In the case of `CCc1nc(NC2CCCC2)ncc1-c1cc(C)no1` [Compound 103], the pest or weed control at 125 g/ha stood at 30% in assay [1], 20% in assay [2], 70% in assay [3] and 60% in assay [4].
As for `Cc1cc(-c2cnc(N3CCCCC3)nc2C(C)C)on1` [Compound 56], the pest or weed control at 500 g/ha worked out at 0% in assay [1], 10% in assay [2], 70% in assay [3] and 0% in assay [4].
In the case of `Cc1cc(-c2cnc(N3CCC(C(N)=O)CC3)nc2C2CC2)on1` [Compound 64], the pest or weed control at 500 g/ha in assay [1] came out at 60%; in assay [2], 30%; in assay [3], 60%; in assay [4], 0%.
With `Cc1cc(-c2cnc(NCc3ccccc3)nc2C(C)C)on1` [Compound 94], the pest or weed control at 62 g/ha came out at 80% in assay [1] (62 g/ha), 10% in assay [2] (62 g/ha), 60% in assay [3] (62 g/ha) and 0% in assay [4] (62 g/ha).
In the case of `Cc1cc(-c2cnc(NC(C)(C)C)nc2C(C)C)on1` [Compound 5], the pest or weed control at 125 g/ha in assay [1] is 70%; in assay [2], 60%; in assay [3], 100%; in assay [4] it was 100%.
As to `Cc1cc(-c2cnc(NC3CC3)nc2-c2ccc(C)o2)on1` [Compound 44], the pest or weed control at 500 g/ha in assay [1] worked out at 20%; in assay [2], 30%; in assay [3], 70%; in assay [4], 20%.
`Cc1cc(-c2cnc(NCc3ccccc3F)nc2C2CC2)on1` [Compound 81]: the pest or weed control at 500 g/ha in assay [1] is 80%; in assay [2] it was 30%; in assay [3], 98%; in assay [4] it was 80%.
On to `Cc1cc(-c2cnc(NCCc3c(C)noc3C)nc2C(C)(C)C)on1` [Compound 68], for which the pest or weed control at 500 g/ha is 0% in assay [1], 0% in assay [2], 80% in assay [3] and 0% in assay [4].
As for `Cc1cc(-c2cnc(NC3CCCc4sc(Cl)cc43)nc2C(C)C)on1` (centres unmarked) [Compound 3], the pest or weed control at 125 g/ha in assay [1] was found to be 60%; in assay [2], 0%; in assay [3], 60%; in assay [4] it was 10%.
Turning to `Cc1cc(-c2cnc(NC3CCCC3)nc2C(F)F)on1` [Compound 119], the pest or weed control at 125 g/ha in assay [1] was found to be 0%; in assay [2], 0%; in assay [3], 50%; in assay [4] it was 0%.
Consider `Cc1cc(-c2cnc(NC3CCCC3)nc2C2CC2)on1` [Compound 13, N-cyclopentyl-4-cyclopropyl-5-(3-methyl-1,2-oxazol-5-yl)pyrimidin-2-amine], for which the pest or weed control at 125 g/ha was 80% in assay [1], 40% in assay [2], 80% in assay [3] and 70% in assay [4]. For the same compound, the pest or weed control at 250 g/ha in assay [1] was found to be 100%; in assay [2], 80%; in assay [3], 100%; in assay [4] it was 100%.
For the compound `Cc1cc(-c2cnc(NC(C)C)nc2C(C)(C)C)on1` [Compound 73], the pest or weed control at 500 g/ha in assay [1] stood at 70%; in assay [2], 40%; in assay [3], 70%; in assay [4], 0%.
For the compound `Cc1cc(-c2cnc(NCc3ccncc3)nc2C(C)C)on1` [Compound 18], the pest or weed control at 1000 g/ha came out at 30% in assay [1] (1000 g/ha), 60% in assay [2] (1000 g/ha), 90% in assay [3] (1000 g/ha) and 99% in assay [4] (1000 g/ha).
For `Cc1cc(-c2cnc(NC3CCCCC3)nc2C(C)C)on1` [Compound 7], the pest or weed control at 125 g/ha in assay [1] was 80%; in assay [2], 20%; in assay [3], 80%; in assay [4], 60%. Besides, the pest or weed control at 250 g/ha came to 100% in assay [1], 20% in assay [2], 100% in assay [3] and 100% in assay [4].
As to `COCCCNc1ncc(-c2cc(C)no2)c(-c2ccc(C)o2)n1` [Compound 27], the pest or weed control at 500 g/ha stood at 20% in assay [1], 0% in assay [2], 70% in assay [3] and 50% in assay [4].
In the case of `Cc1cc(-c2cnc(NCC3CCCCC3)nc2C(C)C)on1` [Compound 108], the pest or weed control at 125 g/ha in assay [1] amounted to 20%; in assay [2] it was 0%; in assay [3], 50%; in assay [4], 50%.
In the case of `Cc1cc(-c2cnc(NCCCN3CCC(C)CC3)nc2-c2ccco2)on1` [Compound 25], the pest or weed control at 500 g/ha in assay [1] was found to be 30%; in assay [2] it was 0%; in assay [3] it was 30%; in assay [4], 0%.
For the compound `CCN(CC)c1ncc(-c2cc(C)no2)c(C(C)C)n1` [Compound 10], the pest or weed control at 250 g/ha was found to be 30% in assay [1], 0% in assay [2], 0% in assay [3] and 0% in assay [4].
For `COc1ccc(CNc2ncc(-c3onc(C)c3C)c(-c3ccco3)n2)cc1` [Compound 77], the pest or weed control at 500 g/ha in assay [1] came out at 80%; in assay [2], 70%; in assay [3] it was 70%; in assay [4] it was 70%.
Consider `Cc1cc(-c2cnc(NC3CC3)nc2C(C)C)on1` [Compound 38], for which the pest or weed control at 500 g/ha stood at 60% in assay [1], 50% in assay [2], 100% in assay [3] and 100% in assay [4].
Consider `Cc1cc(-c2cnc(N3CCNC(=O)C3)nc2-c2ccc(C)o2)on1` [Compound 37], for which the pest or weed control at 500 g/ha in assay [1] turned out to be 0%; in assay [2], 0%; in assay [3], 50%; in assay [4] it was 0%.
For the compound `Cc1cc(-c2cnc(N3CCC(O)CC3)nc2C2CC2)on1` [Compound 71], the pest or weed control at 500 g/ha in assay [1] worked out at 60%; in assay [2], 0%; in assay [3], 90%; in assay [4] it was 40%.
Turning to `Cc1cc(-c2cnc(NCc3cccc(F)c3)nc2C(F)(F)F)on1` [Compound 126], the pest or weed control at 125 g/ha worked out at 70% in assay [1], 0% in assay [2], 95% in assay [3] and 100% in assay [4].

These data come from patent US20230329236A1, “HERBICIDAL PYRIMIDINE DERIVATIVES” (MoA Technology Limited, priority 2020, published 2023).
